Data on 13 compounds can be found in patent EP0372582A2, “6-Aminoalkyl carbapenems” (Bristol-Myers Squibb Company, priority 1988, dated 1990).

A short description of data set [1]: Chemical stability in aqueous solution (half-life). Format: physicochemical. The procedure:
Chemical stability in aqueous solution at pH 7.4 and pH 2.0 is reported as half-life (t1/2). These values are determined by interpolation from a graph of concentration of test substance remaining in solution after storage under selected conditions for various periods of time.

Data set [2] is described as follows: Blood concentration parameters after administration to mice. The following applies: mouse, in vivo, mice, PO, 50 mg/kg. In kind it is in vivo. From the text: […] "Cmax" is the maximum concentration achieved, "t1/2" is the half-life or time for half of the absorbed material to disappear from the blood stream.
Another data set has as its system Staph. serum. Nature of the data set: M.I.C., tube dilution method in Nutrient Broth. In kind it is cell-based. As to the method:
The following procedures illustrate the application of the process of this invention to the preparation of a variety of compounds of Formula V. In many instances, data illustrating the biological activity of the substances as antibiotics are presented. […] It is determined by interpolation from a graph of concentration versus number of cells following exposure of the organism to the test compound under growth conditions. Another parameter such as optical density which is proportional to the cell count may be used. In some instances MIC₉₀ values are also given. The latter refers to 90% growth inhibition.

The mark [3] stands for this setting: 37°C, pH 2.0 citric acid buffer, by hplc, read-out: t1/2, pH 2.
[4] abbreviates: 37°C, pH 7.4 phosphate buffer, by uv, read-out: t1/2, pH 7.4 (converted).
Setting [5] is: phosphate buffer, pH 7.4, 37°C, pH 7.4 phosphate buffer, by uv, read-out: t1/2, pH 7.4 (converted).
The mark [6] stands for this setting: citric acid buffer, pH 2, 37°C, pH 2.0 citric acid buffer, by hplc, read-out: t1/2, pH 2.

A word on the AUC: it is concentration integrated over time. Read a high AUC as more exposure.

For the compound `C[C@@H](N)C1C(=O)N2C(C(=O)O)=C(SCc3ccccc3)[C@H](C)[C@H]12` (stereo in doubt) [Procedure 12, (5S,6S) 6-(1′R-Aminoethyl)-3-benzylthio-4R-methyl-7-oxo-1-azabicyclo[3.2.0]hept-2-ene-2-carboxylic Acid], the results for the half-life in data set [1] (setting [3]), in data set [1] (setting [4]) and in data set [2] (blood half-life) were 2.4 h, 4.1 h and 0.217 h, respectively. Moreover, in data set [2], the AUC was 11000 ng·h/mL. For the same compound, the Cmax in data set [2] (read-out: Cmax, PO/50) amounted to 33000 ng/mL. For the compound `CSC1=C(C(=O)O)N2C(=O)[C@H]([C@H](C)O)[C@H]2[C@H]1C` [Procedure 4, (5S,6S) Potassium 6-(1′S-hydroxyethyl)-4R-methyl-3-methylthio-7-oxo-1-azabicyclo[3.2.0]hept-2-ene-2-carboxylate], the half-life in data set [1] (setting [5]) was 160 h. Turning to `CCSC1=C(C(=O)O)N2C(=O)[C@H]([C@@H](C)N)[C@H]2[C@H]1C` [Procedure 7, (5S,6R) 6-(1′R-Aminoethyl)-3-ethylthio-4R-methyl-7-oxo-1-azabicyclo[3.2.0]hept-2-ene-2-carboxylic Acid], the values for the half-life in data set [1] (setting [6]) and in data set [1] (setting [5]) were 2.8 h and 4.3 h, respectively. In the case of `C[C@@H](N)[C@H]1C(=O)N2C(C(=O)O)=C(SCCF)[C@H](C)[C@H]12` [Procedure 23], the “M.I.C. Staph. serum” value in the data set with Staph. serum is on record as 16.000. In the case of `C[C@@H](N)[C@H]1C(=O)N2C(C(=O)O)=C(SCCC#N)[C@H](C)[C@H]12` [Procedure 26, (5S,6R)-6-(1′R-Aminoethyl)-3-(2-cyanoethylthio)-4R-methyl-7-oxo-1-azabicyclo[3.2.0]hept-2-ene-2-carboxylic Acid], the half-life was 2.93 h in data set [1] (setting [6]) and 2.8 h in data set [1] (setting [5]).

In the case of `C[C@H](N)[C@H]1C(=O)N2C(C(=O)O)=C(SCCC#N)[C@H](C)[C@H]12` [Procedure 35, (5S,6R) 6-(1′S-Aminoethyl)-3-(2-cyanoethylthio)-4R-methyl-7-oxo-1-azabicyclo[3.2.0]hept-2-ene-2-carboxylic Acid], the half-life in data set [1] (setting [3]) was 0.583 h; in data set [1] (setting [4]), 1.5 h. As for `CSC1=C(C(=O)[O-])N2C(=O)[C@H]([C@@H](C)[N+](C)(C)C)[C@H]2[C@H]1C` [Procedure 36], the “M.I.C. Staph. serum” value with Staph. serum came out at 63.000. In the case of `CSC1=C(C(=O)O)N2C(=O)[C@H]([C@@H](C)NC(=O)CNC(=O)[C@@H](N)CC(C)C)[C@H]2[C@H]1C` [Procedure 37], in the data set on Staph. serum, the “M.I.C. Staph. serum” value was found to be 16.000. Consider `CC[C@H]1C(SC)=C(C(=O)O)N2C(=O)[C@H]([C@H](C)N)[C@@H]12` [Procedure 49, (5S,6R) 6-(1′S-Aminoethyl)-4R-ethyl-3-methylthio-7-oxo-1-azabicyclo[3.2.0]hept-2-ene-2-carboxylic Acid], for which the “M.I.C. Staph. serum” value in the data set on Staph. serum amounted to 63.000. Turning to `CSC1=C(C(=O)O)N2C(=O)[C@H]([C@H](C)N)[C@H]2[C@H]1C` [Procedure 57, (5S,6R) 6-(1S-Aminoethyl)-4R-methyl-3-methylthio-7-oxo-1-1-azabicyclo[3.2.0]hept-2-ene-2-carboxylate], in the data set with Staph. serum, the “M.I.C. Staph. serum” value worked out at 16.000. For `C[C@H](N)[C@H]1C(=O)N2C(C(=O)O)=C(SCc3cccnc3)[C@H](C)[C@H]12` [Procedure 58], in the data set on Staph. serum, the “M.I.C. Staph. serum” value is given as 4.000.

As to `CSC1=C(C(=O)[O-])N2C(=O)[C@H]([C@H](C)[N+](C)(C)C)[C@H]2[C@H]1C` [Procedure 59, (5S,6R) 6-(1′S-N-Trimethylammonium-ethyl)-4R-methyl-3-methylthio-7-oxo-1-azabicyclo[3.2.0]hept-2-ene-2-carboxylate], the “M.I.C. Staph. serum” value in the data set on Staph. serum is given as 8.000. In the case of `CCSC1=C(C(=O)O)N2C(=O)[C@H]([C@H](C)N)[C@H]2[C@H]1C` [Procedure 60, (5S,6R) 6-(1′S-aminoethyl)-3-ethylthio-4R-methyl-7-oxo-1-azabicyclo[3.2.0]hept-2-ene-2-carboxylic acid], in the data set with Staph. serum, the “M.I.C. Staph. serum” value is listed as 8.000.
